Data published in article doi:10.1101/2024.12.17.628051v1 (biorxiv, 2024).
Read-outs that look alike come from different tables or passages of the source.

Assays:
[1] = biological target: T1, STRAD/MO25 dimer (His-STRAD C160 and MO25) (Homo sapiens, UniProt Q7RTN6); assay: biochemical; settings: read-out: residual occupancy (Average)
T1 sequence (Q7RTN6 59-431): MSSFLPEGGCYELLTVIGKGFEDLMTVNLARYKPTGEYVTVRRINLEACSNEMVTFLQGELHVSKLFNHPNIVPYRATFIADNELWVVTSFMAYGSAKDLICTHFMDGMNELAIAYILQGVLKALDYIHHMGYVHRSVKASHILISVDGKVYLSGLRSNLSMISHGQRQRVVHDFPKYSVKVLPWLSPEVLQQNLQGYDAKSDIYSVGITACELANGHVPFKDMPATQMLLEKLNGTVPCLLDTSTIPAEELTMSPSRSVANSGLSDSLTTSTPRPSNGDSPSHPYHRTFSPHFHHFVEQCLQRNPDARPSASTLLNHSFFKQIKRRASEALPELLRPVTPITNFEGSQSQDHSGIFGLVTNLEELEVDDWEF
T1 sequence (Q9Y376 1-341 partner): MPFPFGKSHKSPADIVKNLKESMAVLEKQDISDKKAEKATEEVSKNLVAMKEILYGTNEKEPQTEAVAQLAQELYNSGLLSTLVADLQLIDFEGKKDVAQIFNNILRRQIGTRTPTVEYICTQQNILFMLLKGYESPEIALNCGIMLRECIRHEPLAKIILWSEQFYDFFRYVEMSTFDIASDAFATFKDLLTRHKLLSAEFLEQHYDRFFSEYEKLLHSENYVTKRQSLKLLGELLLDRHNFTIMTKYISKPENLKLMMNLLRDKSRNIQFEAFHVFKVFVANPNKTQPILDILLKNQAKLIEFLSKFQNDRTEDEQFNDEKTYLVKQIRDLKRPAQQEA

[2] = biological target: T2, LKB1/STRAD/MO25 trimer (Homo sapiens, UniProt Q7RTN6); assay: Caliper mobility-shift kinase assay, Fam-LKBtide; format: biochemical
T2 sequence (Q7RTN6 1-431): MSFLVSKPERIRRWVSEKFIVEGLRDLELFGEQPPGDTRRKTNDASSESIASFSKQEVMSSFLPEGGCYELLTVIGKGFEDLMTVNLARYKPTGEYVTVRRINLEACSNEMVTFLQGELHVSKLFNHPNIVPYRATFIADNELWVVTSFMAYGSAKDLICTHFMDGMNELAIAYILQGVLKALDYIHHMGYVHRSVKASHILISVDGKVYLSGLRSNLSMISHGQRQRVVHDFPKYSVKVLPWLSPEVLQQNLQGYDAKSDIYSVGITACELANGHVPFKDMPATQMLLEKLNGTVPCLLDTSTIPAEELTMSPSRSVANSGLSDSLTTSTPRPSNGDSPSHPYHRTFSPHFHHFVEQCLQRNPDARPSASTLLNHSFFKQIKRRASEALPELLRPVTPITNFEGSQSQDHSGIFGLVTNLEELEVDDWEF
T2 sequence (Q15831 1-430 partner): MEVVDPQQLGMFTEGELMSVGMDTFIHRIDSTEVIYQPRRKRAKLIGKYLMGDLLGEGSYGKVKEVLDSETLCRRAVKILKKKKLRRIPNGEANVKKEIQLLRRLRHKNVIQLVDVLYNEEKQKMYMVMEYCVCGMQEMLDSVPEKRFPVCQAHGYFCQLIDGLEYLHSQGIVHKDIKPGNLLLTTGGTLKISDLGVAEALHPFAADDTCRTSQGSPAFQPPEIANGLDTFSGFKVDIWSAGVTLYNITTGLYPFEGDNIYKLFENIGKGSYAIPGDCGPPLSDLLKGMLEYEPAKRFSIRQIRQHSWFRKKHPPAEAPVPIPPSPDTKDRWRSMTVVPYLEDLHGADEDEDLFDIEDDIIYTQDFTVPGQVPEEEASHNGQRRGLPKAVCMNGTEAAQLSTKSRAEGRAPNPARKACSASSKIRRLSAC
T2 sequence (Q9Y376 1-341 partner): T1 sequence (Q9Y376 1-341 partner)

[3] = biological target: T1, STRAD/MO25 dimer (His-STRAD C160 and MO25); assay: TNP-ATP fluorescence displacement; format: binding; settings: 50 μM compound, 5 μM STRAD-MO25, 5 μM TNP-ATP, pH 7.5, room temperature
[4] = biological target: T1, STRAD/MO25 dimer (His-STRAD C160 and MO25); assay: TNP-ATP fluorescence displacement; format: binding
[5] = biological target: T1, STRAD/MO25 dimer (His-STRAD C160 and MO25); assay: biochemical; settings: read-out: residual occupancy (Average); remark: listed apart in the source

Row | Structure (SMILES) | remaining activity at 50 µM [1] [%] | Residual Occupancy (Average) at 50 μM [3] [fraction] | further results
1 | N#C/C(=C(/N)Sc1ccc(N)cc1)c1ccccc1C(F)(F)F [SL-327] | 54 | – | –
2 | CCOP(C)(=O)COc1cccc(-c2cn([C@H]3C[C@@H](CN4CCC4)C3)c3ncnc(N)c23)c1 (stereo partly shown) [SMALS-357] | – | – | EC50 [2]: 5200 nM
3 | CCOP(=O)(COc1cccc(-c2cn([C@H]3C[C@@H](CN4CCC4)C3)c3ncnc(N)c23)c1)OCC [SMALS-323] | – | – | EC50 [2]: 480 nM
4 | COc1cc(Nc2ncc(F)c(Nc3ccc4c(n3)N(COP(=O)(O)O)C(=O)C(C)(C)O4)n2)cc(OC)c1OC [Fostamatinib (R788)] | 52 | – | –
5 | COc1cc(N2CCC(N)CC2)ccc1Nc1ncc(Cl)c(-c2c[nH]c3ccccc23)n1 [AZD3463] | – | 0.33 ± 0.02 | –
6 | Cc1cc(Nc2ncc(Cl)c(Nc3ccccc3S(=O)(=O)C(C)C)n2)c(OC(C)C)cc1C1CCNCC1 [LDK378] | – | 0.40 ± 0.03 | –
7 | Cc1c[nH]c2nc(Nc3ccc(N4CCN(C)CC4)c(F)c3)nc(-c3cccc(CC#N)c3)c12 [SGI-7079] | 56 | – | –
8 | Nc1ncnc2c1c(-c1cccc(OCc3ccccc3)c1)cn2[C@H]1C[C@@H](CN2CCC2)C1 [NVP-AEW541] | 19 | – | IC50 [4]: 2400 nM
9 | CN1CCN(CCOc2cc(OC3CCOCC3)c3c(Nc4c(Cl)ccc5c4OCO5)ncnc3c2)CC1 [Saracatinib] | – | 0.36 ± 0.02 | –
10 | Cc1[nH]c2ccccc2c1C1=C(NCCc2ccc(F)cc2)C(=O)N(C)C1=O [IM-12] | 58 | – | –
11 | N#CC(C#N)=Cc1ccc(O)c(O)c1 [AG-18] | – | – | remaining activity at 50 µM [5]: 54%
12 | CCOc1cc(C(=O)N2CCC(N3CCN(C)CC3)CC2)ccc1Nc1ncc2c(n1)N(C1CCCC1)c1ccccc1C(=O)N2C [ERK5-IN-1] | – | 0.46 ± 0.02 | –
